Reference: PubChem BioAssay (NCI)
“And” between values parts separate entries of the source, which are not always exact repeats. Equal entries are not always repeated.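 Cells were grown in 96-well plates and exposed to each compound for 48 hours at five concentrations; endpoints were interpolated linearly between bracketing concentrations, or set to the highest concentration if not reached. Abbreviation: GI50, concentration required for 50% inhibition of growth. TGI marks complete inhibition of growth.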

Assays:
Assay in all cases: DTP human tumour cell line panel, 48 h
SW-620 colon = test system: SW-620 colon
RPMI-8226 leukemia = test system: RPMI-8226 leukemia
HT29 colon = test system: HT29 colon
TK-10 renal = test system: TK-10 renal
SF-268 CNS = test system: SF-268 CNS
EKVX NSCLC = test system: EKVX NSCLC
UACC-62 melanoma = test system: UACC-62 melanoma
SNB-19 CNS = test system: SNB-19 CNS

Row | Structure (SMILES) | TGI (SW-620 colon) | TGI (RPMI-8226 leukemia) | TGI (HT29 colon) | TGI (TK-10 renal) | TGI (SF-268 CNS) | TGI (EKVX NSCLC) | TGI (UACC-62 melanoma) | GI50 (SW-620 colon) | GI50 (SNB-19 CNS) | TGI (SNB-19 CNS) | GI50 (HT29 colon) | GI50 (TK-10 renal) | GI50 (SF-268 CNS) | GI50 (EKVX NSCLC) | GI50 (UACC-62 melanoma) | GI50 (RPMI-8226 leukemia)
1 | [N-]=[N+]=Nc1cc(=O)n2c3c(cccc13)CCC2 | > 100 µM | > 100 µM | > 100 µM | > 100 µM | > 100 µM | > 100 µM | > 100 µM |  |  |  |  |  |  |  |  | 
2 | CCN1C(=O)N(CC)C2C1NN=c1s/c(=C3\C(=O)N(CC(C)(C)C)c4ccccc43)c(=O)n12 (stereo not drawn) | 21.9 µM |  | 17 µM | 48.5 µM | 32.1 µM | 54.2 µM | 15.8 µM | 4.75 µM | 4.05 µM | 16 µM | 3.6 µM | 15.3 µM | 4.8 µM | 5.07 µM | 3.06 µM | 
3 | CCCCCOc1ccc(/C=N/Nc2cc(C)nc3ccc(Br)cc23)cc1 | 3.63 µM | 4.17 µM | 4.24 µM | 3.42 µM | 3.73 µM | 3.11 µM | 3.13 µM | 1.92 µM | 1.96 µM | 3.71 µM | 1.94 µM | 1.87 µM | 1.97 µM | 1.63 µM | 1.66 µM | 1.91 µM
4 | c1ccc2c(c1)c1c(c3ccccc32)CN2CCCC2C1 (stereo not drawn) | 16.7 µM | > 24.2 µM | > 34.8 µM | > 90.8 µM | 13.2 µM | > 100 µM | 12.8 µM |  |  | > 22.5 µM |  |  |  |  |  | 
5 | O=C(O)c1ccc(OCc2ccccc2)c(Cl)c1 | > 100 µM | > 100 µM | > 100 µM | > 100 µM | > 100 µM | > 100 µM | > 100 µM |  |  | > 100 µM |  |  |  |  |  | 
6 | COCC1(CO)C(=O)C2CCN1CC2 (stereo not drawn) | 37.9 µM | 64.3 µM | > 63.9 µM | 31.1 µM | > 100 µM | 43.4 µM | > 56.1 µM | 18.1 µM | > 69 µM | > 100 µM | 28.1 µM | 16.8 µM | > 90.1 µM | 18.1 µM | 23 µM | 23.8 µM
7 | O=C(Nc1ccc(-n2ccc3c(NC(=O)c4ccccc4)nccc32)cc1)Nc1ccc(Cl)c(Cl)c1 | 2.51 µM | 3.08 µM | 2.33 µM | 5.29 µM | 5.97 µM | 44 µM | 2.83 µM | 1.08 µM | 1.13 µM | 4.4 µM | 0.664 µM | 1.82 µM | 1.26 µM | 4.83 µM | 1.23 µM | 0.482 µM
8 | C1=C\COCc2cc(ccc2OCCN2CCCC2)Nc2nccc(n2)-c2cccc(c2)COC/1 | 6.07 µM | 6.35 µM | 5.04 µM | 5.79 µM | 5.77 µM | 7.73 µM | 5.2 µM | 1.48 µM | 2.68 µM | 7.07 µM | 1.18 µM | 3.33 µM | 2.03 µM | 2.76 µM | 2.02 µM | 3.12 µM
9 | O=C(c1ccc(/C=C/c2n[nH]c3ccccc23)cc1)N1CCNCC1 | 4.14 µM and 10.8 µM | > 10 µM and 47.3 µM | 4.77 µM and 15.3 µM | > 10 µM and 20.2 µM | > 10 µM and 18.9 µM | > 10 µM and 34.6 µM | 3.83 µM and 24.8 µM | 1.96 µM and 1.47 µM | 4.26 µM and 15.8 µM | > 10 µM and 33.2 µM | 2.04 µM and 2.44 µM | > 10 µM and 5.29 µM | 8.61 µM and 4.34 µM | > 10 µM and 8.5 µM | 1.72 µM and 11.3 µM | 4.21 µM and 10.5 µM
10 | N=C(N)c1ccc2nc(-c3cc(CC(=O)N[C@@H](CC(=O)O)C(=O)O)cc(-c4cc(S(N)(=O)=O)ccc4O)c3O)[nH]c2c1 | > 100 µM | > 100 µM | > 100 µM | > 100 µM | > 100 µM | > 100 µM | > 100 µM | > 100 µM | > 100 µM | > 100 µM | > 100 µM | > 100 µM | > 100 µM | > 100 µM | > 100 µM | > 100 µM
11 | C=C1C(=O)OC2CC(C)C3(O)CCC(=O)C3(C)CC12 (stereo not drawn) | > 100 µM | 43.1 µM | 43.4 µM | 99.1 µM | 64.5 µM | > 100 µM | > 100 µM |  |  | 61.4 µM |  |  |  |  |  | 
12 | CC(=O)Oc1ccccc1C(=O)Nc1ncc([N+](=O)[O-])s1 | > 100 µM | > 100 µM | 13.5 µM and 97.5 µM | 10.3 µM and > 100 µM | > 79.7 µM | > 100 µM | 6.71 µM and > 47.3 µM | 2.76 µM | 2.05 µM | 45.7 µM and > 100 µM | 3.37 µM | 3.75 µM | 3.35 µM | 2.66 µM | 1.23 µM | 0.677 µM
13 | Cc1cc(C)c(NC(=O)c2sc3nc4c(cc3c2N)CN(Cc2ccccc2)CC4)c(C)c1 | 17.1 µM | 35.1 µM | 13.2 µM | > 100 µM | 64.8 µM |  | 42.4 µM | 2.6 µM | 7.21 µM | > 100 µM | 2.88 µM | 5.06 µM | 6.93 µM |  | 3.9 µM | 3.18 µM
14 | N#Cc1c(N/N=C/c2ccc(Cl)cc2Cl)nc(N)nc1N1CCCC1 | > 100 µM | > 100 µM | > 100 µM | > 100 µM | > 100 µM | > 100 µM | 84.2 µM | 19.5 µM | 49.9 µM | > 100 µM | 37.1 µM | 54.3 µM | 68.3 µM | > 100 µM | 25.6 µM | 30.9 µM
15 | O=C1NC(=O)C(c2cccc([N+](=O)[O-])c2)=C1Nc1cc(Cl)c(O)c(Cl)c1 | > 25 µM | > 25 µM | > 25 µM | > 25 µM | > 25 µM | > 25 µM | > 25 µM | > 25 µM | > 25 µM | > 25 µM | > 25 µM | > 17.7 µM | > 25 µM | > 25 µM | > 20.8 µM | > 25 µM
16 | COc1cc(C(=O)N2CCN(c3ncccn3)CC2)c(N)cc1OCc1ccccc1 | > 100 µM | > 100 µM | > 100 µM | > 100 µM | > 100 µM |  | > 100 µM | > 100 µM | > 100 µM | > 100 µM | > 100 µM | > 100 µM | > 100 µM |  | > 100 µM | > 100 µM
17 | CC(C)(S)C(N)C(=O)O (stereo not drawn) | > 5000 µM | > 5000 µM | > 5000 µM | > 5000 µM | > 5000 µM | 3600 µM and > 100 µM | > 5000 µM | 2220 µM | 3370 µM | > 5000 µM | > 5000 µM | 2610 µM | 1740 µM | 1190 µM | 4760 µM | 3830 µM
